Data: ChEMBL document CHEMBL5346943, “Discovery and Structural Optimization of Novel Quinolone Derivatives as Potent Irreversible Pan-Fibroblast Growth Factor Receptor Inhibitors for Treating Solid Tumors” (J Med Chem, 2023)

Key:
[1] = test system: Huh-7; experiment: Antiproliferative activity against human Huh-7 cells incubated for 72 hrs by Cell counting kit 8 method; type: functional, cell-based; settings: Huh-7, 72 h
[2] = molecular target: T1, Fibroblast growth factor receptor 4 (Homo sapiens, UniProt P22455); experiment: Inhibition of FGFR4 (unknown origin) incubated for 10 mins followed by substrate addition measured after 60 mins by ADP-Glo luminescence assay
Target sequence in this assay (P22455 whole entry): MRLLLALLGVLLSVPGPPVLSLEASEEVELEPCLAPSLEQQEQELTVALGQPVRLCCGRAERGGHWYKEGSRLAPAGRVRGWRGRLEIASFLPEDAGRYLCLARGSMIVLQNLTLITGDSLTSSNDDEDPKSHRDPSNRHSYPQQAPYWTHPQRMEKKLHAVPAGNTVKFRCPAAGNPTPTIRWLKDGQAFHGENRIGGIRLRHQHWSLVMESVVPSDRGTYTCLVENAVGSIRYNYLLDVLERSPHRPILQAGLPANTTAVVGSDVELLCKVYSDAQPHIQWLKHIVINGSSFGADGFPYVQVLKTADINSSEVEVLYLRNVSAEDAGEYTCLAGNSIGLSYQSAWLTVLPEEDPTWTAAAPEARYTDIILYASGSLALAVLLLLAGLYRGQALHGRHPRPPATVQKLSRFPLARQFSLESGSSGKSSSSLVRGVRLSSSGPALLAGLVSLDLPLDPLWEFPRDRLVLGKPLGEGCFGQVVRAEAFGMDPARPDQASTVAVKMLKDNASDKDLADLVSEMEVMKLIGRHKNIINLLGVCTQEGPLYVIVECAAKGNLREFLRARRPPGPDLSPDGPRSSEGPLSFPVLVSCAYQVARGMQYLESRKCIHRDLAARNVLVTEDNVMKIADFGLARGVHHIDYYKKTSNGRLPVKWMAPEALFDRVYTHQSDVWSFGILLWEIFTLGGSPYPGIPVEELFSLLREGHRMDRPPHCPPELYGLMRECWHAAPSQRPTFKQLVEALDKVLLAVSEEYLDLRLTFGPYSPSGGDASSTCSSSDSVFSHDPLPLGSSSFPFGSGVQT

[3] = test system: Hep 3B2; experiment: Antiproliferative activity against human Hep3B cells incubated for 72 hrs by Cell counting kit 8 method; type: functional, cell-based
[4] = Tmax in Sprague-Dawley rat measured at 10 mg/kg, po for 0.083 to 24 hrs by LC-MS/MS analysis; type: ADME, organism-based; settings: in vivo, time 0.083-24 hrs
[5] = Cmax in Sprague-Dawley rat measured at 10 mg/kg, po for 0.083 to 24 hrs by LC-MS/MS analysis; type: ADME, organism-based; parameters: time 0.083-24 hrs, dose 10 mg/kg, route po; settings: in vivo
[6] = Half life in Sprague-Dawley rat measured at 2 mg/kg, iv for 0.083 to 24 hrs by LC-MS/MS analysis; type: ADME, organism-based; settings: in vivo, time 0.083-24 hrs
[7] = C0 in Sprague-Dawley rat measured at 2 mg/kg, iv for 0.083 to 24 hrs by LC-MS/MS analysis; type: ADME, organism-based; settings: in vivo, time 0.083-24 hrs
[8] = MRT (0 to t) in Sprague-Dawley rat measured at 10 mg/kg, po for 0.083 to 24 hrs by LC-MS/MS analysis; type: ADME, organism-based; settings: in vivo, time 0.083-24 hrs
[9] = Ionization constant, pKa of the compound in PBS buffer at pH 1.42 to 12.33 by electrochemical method; type: physicochemical
[10] = molecular target: Fibroblast growth factor receptor 2 (Homo sapiens, UniProt P21802); experiment: Inhibition of FGFR2 (unknown origin) incubated for 10 mins followed by substrate addition measured after 60 mins by ADP-Glo luminescence assay
[11] = Solubility of the compound in PBS buffer of pH7.4 at 10 mM measured after 2 hrs by LC-MS/MS analysis; type: physicochemical; settings: pH 7.4
[12] = MRT (0 to infinity) in Sprague-Dawley rat measured at 10 mg/kg, po for 0.083 to 24 hrs by LC-MS/MS analysis; type: ADME, organism-based; settings: in vivo, time 0.083-24 hrs
[13] = AUC (0 to t) in Sprague-Dawley rat measured at 10 mg/kg, po for 0.083 to 24 hrs by LC-MS/MS analysis; type: ADME, organism-based; parameters: dose 10 mg/kg, time upper 24 hrs, time lower 0.083 hrs, route po; settings: in vivo
[14] = molecular target: Fibroblast growth factor receptor 3 (Homo sapiens, UniProt P22607); experiment: Inhibition of FGFR3 (unknown origin) incubated for 10 mins followed by substrate addition measured after 60 mins by ADP-Glo luminescence assay
[15] = Oral bioavailability in Sprague-Dawley rat measured at 10 mg/kg for 0.083 to 24 hrs by LC-MS/MS analysis; type: ADME, organism-based; settings: in vivo, time 0.083-24 hrs
[16] = molecular target: Fibroblast growth factor receptor 1 (Homo sapiens, UniProt P11362); experiment: Inhibition of FGFR1 (unknown origin) incubated for 10 mins followed by substrate addition measured after 60 mins by ADP-Glo luminescence assay
[17] = MRT (0 to t) in Sprague-Dawley rat measured at 2 mg/kg, iv for 0.083 to 24 hrs by LC-MS/MS analysis; type: ADME, organism-based; settings: in vivo, time 0.083-24 hrs
[18] = Clearance in Sprague-Dawley rat measured at 2 mg/kg, iv for 0.083 to 24 hrs by LC-MS/MS analysis; type: ADME, organism-based; settings: in vivo, time 0.083-24 hrs
[19] = Cmax in Sprague-Dawley rat measured at 2 mg/kg, iv for 0.083 to 24 hrs by LC-MS/MS analysis; type: ADME, organism-based; parameters: time upper 24 hrs, time lower 0.083 hrs, dose 2 mg/kg, route iv; settings: in vivo
[20] = AUC (0 to infinity) in Sprague-Dawley rat measured at 2 mg/kg, iv for 0.083 to 24 hrs by LC-MS/MS analysis; type: ADME, organism-based; parameters: time lower 0.083 hrs, dose 2 mg/kg, time upper 24 hrs, route iv; settings: in vivo
[21] = Permeability of the compound at 10 uM preincubated in acceptor compartment for 16 hrs followed by 16 hrs incubation in donor compartment by PAMPA based LC-MS/MS analysis; type: ADME; settings: time 32 hrs, read-out: permeability
[22] = AUC (0 to infinity) in Sprague-Dawley rat measured at 10 mg/kg, po for 0.083 to 24 hrs by LC-MS/MS analysis; type: ADME, organism-based; parameters: dose 10 mg/kg, time upper 24 hrs, time lower 0.083 hrs, route po; settings: in vivo
[23] = Tmax in Sprague-Dawley rat measured at 2 mg/kg, iv for 0.083 to 24 hrs by LC-MS/MS analysis; type: ADME, organism-based; settings: in vivo, time 0.083-24 hrs
[24] = MRT (0 to infinity) in Sprague-Dawley rat measured at 2 mg/kg, iv for 0.083 to 24 hrs by LC-MS/MS analysis; type: ADME, organism-based; settings: in vivo, time 0.083-24 hrs
[25] = Volume of distribution at steady state in Sprague-Dawley rat measured at 2 mg/kg, iv for 0.083 to 24 hrs by LC-MS/MS analysis; type: ADME, organism-based; settings: in vivo, time 0.083-24 hrs, read-out: Vdss
[26] = Half life in Sprague-Dawley rat measured at 10 mg/kg, po for 0.083 to 24 hrs by LC-MS/MS analysis; type: ADME, organism-based; settings: in vivo, time 0.083-24 hrs
[27] = AUC (0 to t) in Sprague-Dawley rat measured at 2 mg/kg, iv for 0.083 to 24 hrs by LC-MS/MS analysis; type: ADME, organism-based; parameters: dose 2 mg/kg, time upper 24 hrs, time lower 0.083 hrs, route iv; settings: in vivo
[28] = Microsomal stability in human liver microsomes assessed as intrinsic clearance preincubated for 10 mins followed by NADPH addition measured upto 60 mins by LC-MS/MS analysis; type: ADME, Microsome; settings: time < 70 min, read-out: CLH
[29] = Microsomal stability in human liver microsomes assessed as half life preincubated for 10 mins followed by NADPH addition measured upto 60 mins by LC-MS/MS analysis; type: ADME, Microsome; settings: time < 70 min
[30] = molecular target: T1, Fibroblast growth factor receptor 4; experiment: Inhibition of FGFR4 (unknown origin) at 100 nM incubated for 10 mins followed by substrate addition measured after 60 mins by ADP-Glo luminescence assay relative to control; settings: time 70.0 min
Target sequence in this assay (P22455 22-802 limits assumed): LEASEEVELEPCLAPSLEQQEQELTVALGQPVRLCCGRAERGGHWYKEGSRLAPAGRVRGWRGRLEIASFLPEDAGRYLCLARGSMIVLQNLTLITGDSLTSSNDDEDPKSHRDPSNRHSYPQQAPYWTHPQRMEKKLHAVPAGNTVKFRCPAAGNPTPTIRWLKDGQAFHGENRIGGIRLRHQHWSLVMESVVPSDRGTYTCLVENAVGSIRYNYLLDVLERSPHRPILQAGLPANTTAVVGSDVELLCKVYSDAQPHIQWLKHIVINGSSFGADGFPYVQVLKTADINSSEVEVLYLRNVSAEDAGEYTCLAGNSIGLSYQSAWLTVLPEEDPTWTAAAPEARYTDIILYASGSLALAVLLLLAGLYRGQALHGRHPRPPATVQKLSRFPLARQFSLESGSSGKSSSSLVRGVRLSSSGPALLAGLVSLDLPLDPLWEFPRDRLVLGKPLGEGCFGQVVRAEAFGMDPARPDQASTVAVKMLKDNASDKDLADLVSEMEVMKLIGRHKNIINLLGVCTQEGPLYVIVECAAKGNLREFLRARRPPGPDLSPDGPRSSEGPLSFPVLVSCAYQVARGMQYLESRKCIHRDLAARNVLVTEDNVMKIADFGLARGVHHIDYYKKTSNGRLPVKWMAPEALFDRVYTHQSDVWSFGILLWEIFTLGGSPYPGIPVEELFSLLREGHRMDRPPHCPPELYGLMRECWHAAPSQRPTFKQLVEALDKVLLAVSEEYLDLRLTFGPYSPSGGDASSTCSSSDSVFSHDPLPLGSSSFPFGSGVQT

Sequence of Fibroblast growth factor receptor 1 (P11362 whole entry): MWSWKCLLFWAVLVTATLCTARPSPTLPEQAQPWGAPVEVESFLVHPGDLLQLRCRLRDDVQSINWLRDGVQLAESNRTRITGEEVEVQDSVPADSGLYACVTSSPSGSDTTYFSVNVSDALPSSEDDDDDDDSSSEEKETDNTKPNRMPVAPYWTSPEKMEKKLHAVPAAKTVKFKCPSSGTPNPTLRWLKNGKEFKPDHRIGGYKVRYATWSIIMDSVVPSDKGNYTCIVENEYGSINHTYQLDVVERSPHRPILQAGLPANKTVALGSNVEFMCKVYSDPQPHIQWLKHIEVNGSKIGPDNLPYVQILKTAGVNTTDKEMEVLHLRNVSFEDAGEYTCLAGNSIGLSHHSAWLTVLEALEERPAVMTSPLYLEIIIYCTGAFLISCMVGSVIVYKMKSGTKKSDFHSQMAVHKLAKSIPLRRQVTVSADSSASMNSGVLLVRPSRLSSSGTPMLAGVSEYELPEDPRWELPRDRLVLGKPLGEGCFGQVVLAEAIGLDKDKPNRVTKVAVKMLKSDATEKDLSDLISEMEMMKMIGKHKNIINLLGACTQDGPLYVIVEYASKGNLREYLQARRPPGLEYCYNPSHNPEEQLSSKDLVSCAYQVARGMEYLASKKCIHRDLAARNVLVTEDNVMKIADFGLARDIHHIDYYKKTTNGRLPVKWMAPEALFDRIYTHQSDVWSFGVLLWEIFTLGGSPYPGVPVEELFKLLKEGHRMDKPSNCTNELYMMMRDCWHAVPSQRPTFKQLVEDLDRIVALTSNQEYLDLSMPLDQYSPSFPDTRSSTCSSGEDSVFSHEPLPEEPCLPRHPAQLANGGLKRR
Sequence of Fibroblast growth factor receptor 2 (P21802 whole entry): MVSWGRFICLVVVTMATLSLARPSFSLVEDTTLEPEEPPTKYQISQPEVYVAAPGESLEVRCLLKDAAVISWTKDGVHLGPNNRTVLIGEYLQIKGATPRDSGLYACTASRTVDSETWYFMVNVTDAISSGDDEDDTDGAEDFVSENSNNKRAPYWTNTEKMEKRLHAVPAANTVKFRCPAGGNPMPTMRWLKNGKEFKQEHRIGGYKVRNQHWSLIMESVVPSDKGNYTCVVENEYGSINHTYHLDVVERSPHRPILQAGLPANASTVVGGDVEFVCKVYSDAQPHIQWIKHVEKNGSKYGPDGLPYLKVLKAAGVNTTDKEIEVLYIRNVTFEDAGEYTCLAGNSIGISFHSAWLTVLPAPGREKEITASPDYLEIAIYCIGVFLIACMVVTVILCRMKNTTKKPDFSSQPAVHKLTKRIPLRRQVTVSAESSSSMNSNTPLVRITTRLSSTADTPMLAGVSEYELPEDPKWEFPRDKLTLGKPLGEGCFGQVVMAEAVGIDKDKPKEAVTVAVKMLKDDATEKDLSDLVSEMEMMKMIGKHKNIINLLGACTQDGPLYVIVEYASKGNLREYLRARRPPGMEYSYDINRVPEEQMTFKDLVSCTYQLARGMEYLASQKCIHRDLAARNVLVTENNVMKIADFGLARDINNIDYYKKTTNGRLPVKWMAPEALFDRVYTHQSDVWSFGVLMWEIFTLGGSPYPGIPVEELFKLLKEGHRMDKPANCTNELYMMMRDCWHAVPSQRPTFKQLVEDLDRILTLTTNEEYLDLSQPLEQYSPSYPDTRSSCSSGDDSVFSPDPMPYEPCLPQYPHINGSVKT
Sequence of Fibroblast growth factor receptor 3 (P22607 whole entry): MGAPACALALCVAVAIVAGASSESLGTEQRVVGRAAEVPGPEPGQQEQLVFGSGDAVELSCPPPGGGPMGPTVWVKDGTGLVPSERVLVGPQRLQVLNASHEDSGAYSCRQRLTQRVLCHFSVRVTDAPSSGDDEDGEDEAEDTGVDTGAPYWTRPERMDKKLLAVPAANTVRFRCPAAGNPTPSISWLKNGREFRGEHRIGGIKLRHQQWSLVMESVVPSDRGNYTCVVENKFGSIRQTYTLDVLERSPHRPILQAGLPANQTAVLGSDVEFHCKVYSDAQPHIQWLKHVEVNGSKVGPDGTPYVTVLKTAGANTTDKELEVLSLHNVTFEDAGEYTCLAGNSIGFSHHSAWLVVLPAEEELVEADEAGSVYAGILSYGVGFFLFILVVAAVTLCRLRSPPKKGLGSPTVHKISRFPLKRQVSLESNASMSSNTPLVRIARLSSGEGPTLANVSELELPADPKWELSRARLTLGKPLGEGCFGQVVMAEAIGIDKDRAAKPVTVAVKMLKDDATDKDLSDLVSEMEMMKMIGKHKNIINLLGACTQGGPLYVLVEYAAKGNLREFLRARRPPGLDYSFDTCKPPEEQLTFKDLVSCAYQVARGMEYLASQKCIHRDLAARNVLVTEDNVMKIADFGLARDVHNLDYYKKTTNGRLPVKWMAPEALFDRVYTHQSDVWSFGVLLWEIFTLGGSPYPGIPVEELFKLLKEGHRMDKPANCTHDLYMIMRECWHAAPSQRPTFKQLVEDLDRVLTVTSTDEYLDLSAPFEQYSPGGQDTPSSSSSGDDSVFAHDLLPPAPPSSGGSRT

COc1cc2nccc(Oc3ccc(NC(=O)NC4CC4)c(Cl)c3)c2cc1C1CCN(C(=O)/C=C/C(F)(F)F)CC1
IC50 [1]: 103 nM | IC50 [2]: 12.4 nM | IC50 [3]: > 10000 nM

C=CC(=O)N1CCC(c2cc3c(Oc4ccc(NC(=O)NC5CC5)c(Cl)c4)ccnc3cc2OCC)CC1
Tmax [4]: 15 min | Cmax [5]: 1680 ng/mL | half-life [6]: 14.4 min | C0 [7]: 3090 ng/mL | MRT last [8]: 79.8 min | pKa [9]: 5.28 | IC50 [1]: 9.4 nM | IC50 [10]: 5.2 nM | IC50 [2]: 230 nM | solubility at 2 h, 10000 µM [11]: < 0.073 µM | MRT [12]: 85.2 min | AUC(0-t) [13]: 1100 ng·h/mL | IC50 [3]: 17.4 nM | IC50 [14]: 5.5 nM | bioavailability [15]: 43.7% | IC50 [16]: 4.5 nM | MRT last [17]: 9.6 min | clearance [18]: 66 mL/min/kg | Cmax [19]: 1700 ng/mL | AUC(0-inf) [20]: 506 ng·h/mL | Papp at 16 h, 10 µM [21]: 1.11 ×10⁻⁶ cm/s | AUC(0-inf) [22]: 1120 ng·h/mL | Tmax [23]: 4.8 min | MRT [24]: 10.2 min | Vd [25]: 0.659 L/kg | half-life [26]: 78 min | AUC(0-t) [27]: 505 ng·h/mL

COc1cc2nccc(Oc3ccc(NC(=O)NC4CC4)c(Cl)c3)c2cc1C1=CCN(C(=O)CCl)CC1
IC50 [1]: > 10000 nM | IC50 [2]: 294 nM | IC50 [3]: 1660 nM

COc1cc2nccc(Oc3ccc(NC(=O)NC4CC4)c(Cl)c3)c2cc1C(N)=O [LENVATINIB]
pKa [9]: 5.27 | IC50 [1]: 851 nM | IC50 [10]: 11 nM | microsomal CLint [28]: 74.1 µL/min/mg | IC50 [3]: 696 nM | half-life [29]: 22.4 min | IC50 [16]: 66 nM | Papp at 16 h, 10 µM [21]: 9.27 ×10⁻⁶ cm/s

C=CC(=O)N1CCC(c2cc3c(Oc4ccc(NC(=O)NC5CC5)c(Cl)c4)ccnc3cc2OC)C(C)C1 (stereo not drawn)
IC50 [1]: 16.9 nM | IC50 [2]: 5.73 nM | IC50 [3]: 13.3 nM

C=CC(=O)N1CCC(c2cc3c(Nc4ccc(F)c(Cl)c4)ccnc3cc2OC)CC1
IC50 [1]: > 10000 nM | inhibition [30]: 15.3% | IC50 [3]: > 10000 nM

C=CC(=O)N1CCC(c2cc3c(Oc4ccc(NC(=O)Cc5ccccc5)cc4F)ccnc3cc2OC)CC1
IC50 [1]: 2210 nM | inhibition [30]: 1.1% | IC50 [3]: 1350 nM

C=CC(=O)N1CCC(c2cc3nccc(Oc4ccc(NC(=O)NC5CC5)c(Cl)c4)c3cc2OC)CC1
IC50 [1]: > 10000 nM | inhibition [30]: 25.9% | IC50 [3]: > 10000 nM

C=CC(=O)N1CCC(c2cc3c(Oc4ccc(NC(=O)C5(C(=O)Nc6ccc(F)cc6)CC5)cc4)ccnc3cc2OC)CC1
IC50 [1]: > 10000 nM | inhibition [30]: -2.1% | IC50 [3]: 3930 nM

C=CC(=O)N1CCC(c2cc3c(Oc4ccc(NC(=O)NC5CC5)c(F)c4)ccnc3cc2OC)CC1
IC50 [1]: 21.1 nM | IC50 [2]: 18 nM | IC50 [3]: 30.2 nM

C=CC(=O)N1CC=C(c2cc3c(Oc4ccc(NC(=O)NC5CC5)c(Cl)c4)ccnc3cc2OC)CC1
IC50 [1]: 54.3 nM | IC50 [2]: 2.88 nM | IC50 [3]: 66.2 nM

COc1cc2nccc(Oc3ccc(NC(=O)NC4CC4)c(Cl)c3)c2cc1C1CCN(C(=O)C(F)(F)F)CC1
IC50 [1]: 1410 nM | inhibition [30]: 25.6% | IC50 [3]: > 10000 nM

C=CC(=O)N1CCC(c2cc3c(Oc4ccc(/N=C5\CCCN5C)c(Cl)c4)ccnc3cc2OC)CC1
IC50 [1]: > 10000 nM | IC50 [3]: > 10000 nM

C=CS(=O)(=O)N1CC=C(c2cc3c(Oc4ccc(NC(=O)NC5CC5)c(Cl)c4)ccnc3cc2OC)CC1
IC50 [1]: > 10000 nM | IC50 [2]: 4.65 nM | IC50 [3]: 5080 nM

C=CC(=O)N1CCC(c2cc3c(Oc4ccc(NC(=O)Nc5cc(C)on5)c(Cl)c4)ccnc3cc2OC)CC1
IC50 [1]: 384 nM | inhibition [30]: 36.5% | IC50 [3]: 664 nM
